Data published in US6680323B2, “Dihydropyrimidines and uses thereof” (Synaptic Pharmaceutical Corporation, priority 1998, dated 2004).
Counter-ions that a name gives are not always drawn.

What was measured:
human α2a receptor = biological target: T1, human α2a receptor (Homo sapiens, UniProt P08913); assay: Competition binding ([3H]rauwolscine) at cloned human α2a receptor; conditions: transfected LM(tk−) cells, [3H]rauwolscine 0.5 nM; read-out: Binding affinity hα2a
T1 construct: expressed in transfected cells
T1 sequence (P08913 1-465): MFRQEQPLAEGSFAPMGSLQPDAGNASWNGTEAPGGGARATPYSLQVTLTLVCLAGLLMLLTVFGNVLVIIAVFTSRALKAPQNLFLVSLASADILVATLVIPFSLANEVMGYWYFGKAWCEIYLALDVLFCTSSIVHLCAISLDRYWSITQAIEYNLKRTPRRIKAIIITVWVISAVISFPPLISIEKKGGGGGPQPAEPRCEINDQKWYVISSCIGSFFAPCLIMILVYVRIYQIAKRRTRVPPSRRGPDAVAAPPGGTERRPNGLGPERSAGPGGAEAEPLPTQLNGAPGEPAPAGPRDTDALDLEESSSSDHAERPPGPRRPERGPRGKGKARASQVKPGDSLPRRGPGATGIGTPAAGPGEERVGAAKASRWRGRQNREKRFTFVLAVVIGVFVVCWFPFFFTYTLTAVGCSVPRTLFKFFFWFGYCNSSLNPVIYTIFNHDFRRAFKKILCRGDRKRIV
Excerpt: α2 Human Adrenergic Receptors
To determine the potency of α1 antagonists at the α2 receptors, LM(tk−) cell lines stably transfected with the genes encoding the α2a, α2b, and α2c receptors were used. The cell line expressing the α2a receptor is designated L-α2A, and was deposited on Nov. 6, 1992 under ATCC Accession No. CRL 11180. The cell line expressing the α2b receptor is designated L-NGC-α2B, and was deposited on Oct. 25, 1989 under ATCC Accession No. CRL10275. The cell line expressing the α2c receptor is designated L-α2C, and was deposited on Nov. 6, 1992 under ATCC Accession No. CRL-11181. All the cell lines were deposited with the American Type Culture Collection, 12301 Parklawn Drive, Rockville, Md. 20852, U.S.A. under the provisions of the Budapest Treaty for the International Recognition of the Deposit of Microorganisms for the Purposes of Patent Procedure. Cell lysates were prepared as described above (see Radioligand Binding Assays), and suspended in 25 mM glycylglycine buffer (pH 7.6 at room temperature). Equilibrium competition binding assay were performed using [3H]rauwolscine (0.5 nM), and nonspecific binding was determined by incubation with 10 μM phentolamine. The bound radioligand was separated by filtration through GF/B filters using a cell harvester.

human α1a receptor = biological target: T2, human α1a receptor (Homo sapiens, UniProt P35348); assay: Radioligand binding ([3H]prazosin) at cloned human α1a receptor; conditions: hα1a; membranes of transfected LM(tk−) cells, [3H]prazosin 0.5 nM; read-out: Binding affinity hα1a
T2 construct: expressed in transfected cells
T2 sequence (P35348 1-466): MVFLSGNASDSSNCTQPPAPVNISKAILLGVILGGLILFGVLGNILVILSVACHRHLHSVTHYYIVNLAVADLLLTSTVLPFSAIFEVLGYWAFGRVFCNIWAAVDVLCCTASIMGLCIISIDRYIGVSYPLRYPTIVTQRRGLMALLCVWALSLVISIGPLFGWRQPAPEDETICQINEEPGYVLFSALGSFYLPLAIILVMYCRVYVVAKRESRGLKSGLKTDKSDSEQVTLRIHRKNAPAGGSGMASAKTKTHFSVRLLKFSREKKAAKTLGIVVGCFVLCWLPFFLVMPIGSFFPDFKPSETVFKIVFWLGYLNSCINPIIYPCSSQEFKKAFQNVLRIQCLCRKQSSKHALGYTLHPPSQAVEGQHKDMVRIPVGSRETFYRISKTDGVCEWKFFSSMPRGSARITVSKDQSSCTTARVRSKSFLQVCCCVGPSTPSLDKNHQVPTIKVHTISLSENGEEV
Procedure: The activity of compounds at the different human receptors was determined in vitro using cultured cell lines that selectively express the receptor of interest. These cell lines were prepared by transfecting the cloned cDNA or cloned genomic DNA or constructs containing both genomic DNA and cDNA encoding the human α-adrenergic receptors as follows:
α1a Human Adrenergic Receptor
The entire coding region of α1a (1401 bp), including 400 base pairs of 5′ untranslated sequence (5′ UT) and 200 bp of 3′ untranslated sequence (3′ UT), was cloned into the KpnI site of the polylinker-modified pCEXV-3-derived eukaryotic expression vector, EXJ.RH. The construct involved ligating three partial overlapping fragments: a 5′ 0.6 kb HincII genomic clone, a central 1.8 EcoRI hippocampal cDNA clone,. and a 3′ 0.6 Kb PstI genomic clone. The hippocampal cDNA fragment overlaps with the 5′ and 3′ genomic clones so that the HincII and PstI sites at the 5′ and 3′ ends of the cDNA clone, respectively, were utilized for ligation. This full-length clone was cloned into the KpnI site of the expression vector, using the 5′ and 3′ KpnI sites of the fragment, derived from vector (i.e., pBluescript) and 31-untranslated sequences, respectively. Stable cell lines were selected as described above. The stable cell line expressing the human α1a receptor used herein was designated L-α1C (old nomenclature) and was deposited with the American Type Culture Collection, 12301 Parklawn Drive, Rockville, Md. 20852, U.S.A. under the provisions of the Budapest Treaty for the International Recognition of the Deposit of Microorganisms for the Purposes of Patent Procedure. The cell line expressing the human α1a receptor was accorded Accession No. CR 11140, on Sep. 25, 1992.
Radioligand Binding Assays for α1 Receptors
Transfected cells from culture flasks were scraped into 5 ml of 5 mM Tris-HCl, 5 mM EDTA, pH 7.5, and lysed by sonication. The cell lysates were centrifuged at 1000 rpm for 5 min at 4° C., and the supernatant was centrifuged at 30,000×g for 20 min at 4° C. The pellet was suspended in 50 mM Tris-HCl, 1 mM MgCl2, and 0.1% ascorbic acid at pH 7.5. Binding of the α1 antagonist [^3H]prazosin (0.5 nM, specific activity 76.2 Ci/mmol) to membrane preparations of LM(tk−) cells was done in a final volume of 0.25 ml and incubated at 37° C. for 20 min. Nonspecific binding was determined in the presence of 10 μM phentolamine. The reaction was stopped by filtration through GF/B filters using a cell harvester. Inhibition experiments, routinely consisting of 7 concentrations of the tested compounds, were analyzed using a non-linear regression curve-fitting computer program to obtain Ki values.

| SMILES | Ki (human α2a receptor) [nM] | Ki (human α1a receptor) [nM] |
| --- | --- | --- |
| O=C1OCC2=C1C(c1ccc(F)c(F)c1)N(C(=O)NCCCN1CCC(c3ccccn3)CC1)C(=O)N2 (single isomer, unassigned; (+)) [Compound 8, (+)-1-3-{[4-(3,4-Difluorophenyl)-2,5-dioxo-1,2,5,7-tetrahydro-4H-furo[3,4-d]-pyrimidine-3-carbonyl]amino}-propyl-4-(2-pyridyl)-piperidine] | 1500 | 3 |
| COCC1=C(C(=O)OC)[C@H](c2ccc(F)c(F)c2)N(C(=O)NCCCO)C(=O)N1 [Compound 1, (+)-1,2,3,6-Tetrahydro-1-(3-hydroxypropyl)carboxamido-5-methoxycarbonyl-4-methoxymethyl-6-(3,4-difluorophenyl)-2-oxo-pyrimidine] | 40000 | 260 |
| COCC1=C(C(=O)OC)[C@H](c2ccc(F)c(F)c2)N(C(=O)NCCCN2CCC(c3cccc[n+]3[O-])CC2)C(=O)N1 [Compound 2, (+)-1,2,3,6-Tetrahydro-1-{N-[4-(2-pyridyl)piperidin-1-yl]propyl}carboxamido-5-methoxycarbonyl-4-methoxymethyl-6-(3,4-difluorophenyl)-2-oxopyrimidine-pyridine-N-oxide hydrochloride] | 4200 | 0.3 |
| COCC1=C(C(=O)OC)[C@H](c2ccc(F)c(F)c2)N(C(=O)NCCC[n+]2ccc(-c3ccccn3)cc2)C(=O)N1 [Compound 3, 4-(2-Pyridyl)-1-{3-[5-carboxymethyl-4-methoxymethyl-2-oxo-6(S)-(3,4-difluorphenyl)-1,2,3,6-tetrahydropyrimidin-1-yl]carboxyaminopropyl}pyridinium chloride] | 5620 | 212 |
| COC(=O)C1=C(CO)NC(=O)N(C(=O)NCCCN2CCC(c3ccccn3)CC2)[C@H]1c1ccc(F)c(F)c1 [Compound 7, (+)-1,2,3,6-Tetrahydro-1-{N-[4-(2-pyridyl)piperidin-1-yl]propyl}carboxamido-5-methoxycarbonyl-4-hydroxymethyl-6-(3,4-difluorophenyl)-2-oxopyrimidine] | 380 | 0.8 |
| O=C(O)CCNC(=O)N1C(=O)NC2=C(C(=O)OC2)[C@@H]1c1ccc(F)c(F)c1 [Compound 9] | > 50000 | > 500 |
